For 14 compounds, IC50 results are on record in patent publication US12668600B2 (Kumquat Biosciences Inc., priority 2023, dated 2026).

Type in all cases: biochemical
Assay [1] has as its target T1, KRAS G12D (Homo sapiens, UniProt P01116, G12D).
T1 construct: made in house; host or cells: E. coli, e.g. BL21 (DE3)
The assay can be described thus: HTRF KRAS-SOS1 interaction assay, KRAS G12D. Particulars: binned ≤2 μM / >2 μM, read-out: Inhibition of KRAS G12D (IC50). The gist of the method: (§1)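 Read-out: HTRF ratio 665/620 nm after ≥10 min incubation of compound with GST-KRAS/anti-GST-Eu and His-hSOS1/anti-6His-XL665. Duplicate dose series, 10 μM down to 0.01 μM. Buffer HEPES pH 7.4, NaCl, DTT, BSA, Igepal.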
In general terms: In TR-FRET formats the signal depends on donor and acceptor labels being close together.

In assay [2] the target is T2, KRAS G12V (Homo sapiens, UniProt P01116, G12V).
T2 construct: made in house; host or cells: E. coli, e.g. BL21 (DE3)
Briefly: HTRF KRAS-SOS1 interaction assay, KRAS G12V. Particulars: binned ≤2 μM / >2 μM, read-out: Inhibition of KRAS G12V (IC50). The gist of the method: as §1

Assay [3] deals with T3, KRAS G12S (Homo sapiens, UniProt P01116, G12S).
T3 construct: made in house; host or cells: E. coli, e.g. BL21 (DE3)
Briefly: HTRF KRAS-SOS1 interaction assay, KRAS G12S. The conditions noted are these: binned ≤2 μM / >2 μM, read-out: Inhibition of KRAS G12S (IC50). In short, it runs like this:
as §1

The target in assay [4] is T4, KRAS WT (Homo sapiens, UniProt P01116).
T4 construct: made in house; host or cells: E. coli, e.g. BL21 (DE3)
Briefly: HTRF KRAS-SOS1 interaction assay, wildtype KRAS. Particulars: binned ≤2 μM / >2 μM, read-out: Inhibition of KRAS WT (IC50). In short, it runs like this: as §1

T3 sequence (P01116 1-188 isoform P01116-2 G12S): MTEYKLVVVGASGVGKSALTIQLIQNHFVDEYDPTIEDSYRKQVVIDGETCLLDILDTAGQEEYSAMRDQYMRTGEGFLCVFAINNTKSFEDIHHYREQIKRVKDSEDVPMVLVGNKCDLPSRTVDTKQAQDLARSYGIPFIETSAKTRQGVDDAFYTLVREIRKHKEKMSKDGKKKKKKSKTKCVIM
T4 sequence (P01116 1-188 isoform P01116-2): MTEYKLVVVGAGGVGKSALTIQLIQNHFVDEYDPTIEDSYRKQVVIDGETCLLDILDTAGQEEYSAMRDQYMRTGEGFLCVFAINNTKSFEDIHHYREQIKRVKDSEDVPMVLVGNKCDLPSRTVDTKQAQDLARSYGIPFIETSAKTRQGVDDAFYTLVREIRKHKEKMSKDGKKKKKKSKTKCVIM
T1 sequence (P01116 1-188 isoform P01116-2 G12D): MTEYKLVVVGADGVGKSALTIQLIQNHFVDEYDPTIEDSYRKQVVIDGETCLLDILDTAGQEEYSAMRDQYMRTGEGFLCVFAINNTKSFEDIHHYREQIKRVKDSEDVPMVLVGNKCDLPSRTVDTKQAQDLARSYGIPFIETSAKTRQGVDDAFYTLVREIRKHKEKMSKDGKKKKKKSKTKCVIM
T2 sequence (P01116 1-188 isoform P01116-2 G12V): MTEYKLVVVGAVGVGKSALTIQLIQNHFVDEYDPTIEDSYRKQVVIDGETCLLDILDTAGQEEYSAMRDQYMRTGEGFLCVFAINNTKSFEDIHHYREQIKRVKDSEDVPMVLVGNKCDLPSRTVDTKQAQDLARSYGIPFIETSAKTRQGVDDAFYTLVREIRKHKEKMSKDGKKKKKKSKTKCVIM

With `CC[S+]([O-])[C@@H]1CN2CCC[C@@]2(COc2nc3c4c(c(Cl)c(-c5ccc(F)c6sc(N)c(C#N)c56)c(F)c4n2)OCCN3[C@H](C)c2cccnc2N)C1` (mixture of isomers) [Compound 780, 2-amino-4-(4-((R)-1-(2-aminopyridin-3-yl)ethyl)-8-chloro-2-(((2S,7aS)-2-(ethylsulfinyl)tetrahydro-1H-pyrrolizin-7a(5H)-yl)methoxy)-10-fluoro-5,6-dihydro-4H-[1,4]oxazepino[5,6,7-de]quinazolin-9-yl)-7-fluorobenzo[b]thiophene-3-carbonitrile], the IC50 in assay [1], in assay [2], in assay [3] and in assay [4] was not above 2000 nM in each case.

Turning to `CCON=C(C)CC[C@H](c1cccnc1N)N1CCOc2c(C(F)(F)F)c(-c3ccc(F)c4sc(N)c(C#N)c34)c(F)c3nc(OC[C@@]45CCCN4C[C@H](F)C5)nc1c23` (mixture of isomers) [Compound 789, 2-amino-4-(4-((R)-1-(2-aminopyridin-3-yl)-4-(ethoxyimino)pentyl)-10-fluoro-2-(((2R,7aS)-2-fluorotetrahydro-1H-pyrrolizin-7a(5H)-yl)methoxy)-8-(trifluoromethyl)-5,6-dihydro-4H-[1,4]oxazepino[5,6,7-de]quinazolin-9-yl)-7-fluorobenzo[b]thiophene-3-carbonitrile], the IC50 in assay [1], in assay [2], in assay [3] and in assay [4] was not above 2000 nM throughout.

For the compound `CC(c1cccnc1N)N1c2nc(OC[C@@]34CCCN3C[C@H](F)C4)nc3c(F)c(-c4ccc(F)c5sc(N)c(C#N)c45)c(Cl)c(c23)OC[C@@H]1C(F)F` (mixture of isomers) [Compound 790, 2-amino-4-((5R)-4-(1-(2-aminopyridin-3-yl)ethyl)-8-chloro-5-(difluoromethyl)-10-fluoro-2-(((2R,7aS)-2-fluorotetrahydro-1H-pyrrolizin-7a(5H)-yl)methoxy)-5,6-dihydro-4H-[1,4]oxazepino[5,6,7-de]quinazolin-9-yl)-7-fluorobenzo[b]thiophene-3-carbonitrile], the IC50 in assay [1], in assay [2], in assay [3] and in assay [4] was not above 2000 nM each time.

In the case of `CC(=O)c1c(F)ccc2cc(O)cc(-c3nc4c5c(nc(OC[C@@H]6CCCN6C)nc5c3F)N(C(C)c3cccnc3N)CCO4)c12` (mixture of isomers) [Compound 801, 1-(8-(10-(1-(2-aminopyridin-3-yl)ethyl)-4-fluoro-2-(((S)-1-methylpyrrolidin-2-yl)methoxy)-9,10-dihydro-8H-7-oxa-1,3,6,10-tetraazacyclohepta[de]naphthalen-5-yl)-2-fluoro-6-hydroxynaphthalen-1-yl)ethan-1-one], the IC50 in assay [1], in assay [2], in assay [3] and in assay [4] was not above 2000 nM in each case.

With `C[C@H](Oc1nc2c3c(c(Cl)c(-c4ccc(F)c5sc(N)c(C#N)c45)c(F)c3n1)OCCN2[C@H](C)c1cccnc1N)[C@@H]1CCCN1C` (mixture of isomers) [Compound 803, 2-amino-4-(4-((R)-1-(2-aminopyridin-3-yl)ethyl)-8-chloro-10-fluoro-2-((S)-1-((S)-1-methylpyrrolidin-2-yl)ethoxy)-5,6-dihydro-4H-[1,4]oxazepino[5,6,7-de]quinazolin-9-yl)-7-fluorobenzo[b]thiophene-3-carbonitrile], the IC50 in assay [1], in assay [2], in assay [3] and in assay [4] was not above 2000 nM in each case.

`N#Cc1c(N)sc2c(F)ccc(-c3c(Cl)c4c5c(nc(OC[C@@]67CCCN6C[C@H](F)C7)nc5c3F)N(C(CCCO)c3cccnc3N)CCO4)c12` (mixture of isomers) [Compound 822, 2-amino-4-(4-(1-(2-aminopyridin-3-yl)-4-hydroxybutyl)-8-chloro-10-fluoro-2-(((2R,7aS)-2-fluorotetrahydro-1H-pyrrolizin-7a(5H)-yl)methoxy)-5,6-dihydro-4H-[1,4]oxazepino[5,6,7-de]quinazolin-9-yl)-7-fluorobenzo[b]thiophene-3-carbonitrile]: the concentration for half-maximal inhibition (IC50) in assay [1], in assay [2], in assay [3] and in assay [4] was not above 2000 nM in each case.

Regarding `N#Cc1c(N)sc2c(F)ccc(-c3c(Cl)c4c5c(nc(OC[C@@]67CCCN6C[C@H](F)C7)nc5c3F)N(C(/C=C/C(F)(F)F)c3cccnc3N)CCO4)c12` (mixture of isomers) [Compound 828, 2-amino-4-(4-((E)-1-(2-aminopyridin-3-yl)-4,4,4-trifluorobut-2-en-1-yl)-8-chloro-10-fluoro-2-(((2R,7aS)-2-fluorotetrahydro-1H-pyrrolizin-7a(5H)-yl)methoxy)-5,6-dihydro-4H-[1,4]oxazepino[5,6,7-de]quinazolin-9-yl)-7-fluorobenzo[b]thiophene-3-carbonitrile], the IC50 in assay [1], in assay [2], in assay [3] and in assay [4] was not above 2000 nM throughout.

For `C[C@H](c1cccnc1N)N1CCOc2c(Cl)c(-c3ccc(F)c4sc(N)c(C#N)c34)c(F)c3nc(OC[C@@]45CCCN4CC(CP(C)(C)=O)C5)nc1c23` (mixture of isomers) [Compound 839, 2-amino-4-(4-((R)-1-(2-aminopyridin-3-yl)ethyl)-8-chloro-2-(((7aS)-2-((dimethylphosphoryl)methyl)tetrahydro-1H-pyrrolizin-7a(5H)-yl)methoxy)-10-fluoro-5,6-dihydro-4H-[1,4]oxazepino[5,6,7-de]quinazolin-9-yl)-7-fluorobenzo[b]thiophene-3-carbonitrile], the IC50 in assay [1], in assay [2], in assay [3] and in assay [4] was not above 2000 nM each time.

For the compound `N#Cc1c(N)sc2c(F)ccc(-c3c(Cl)c4c5c(nc(OC[C@@]67CCCN6C[C@H](F)C7)nc5c3F)N(Cc3cccnc3N)C3COCC3CO4)c12` (mixture of isomers) [Compound 868, 2-amino-4-(12-((2-aminopyridin-3-yl)methyl)-6-chloro-4-fluoro-2-(((2R,7aS)-2-fluorotetrahydro-1H-pyrrolizin-7a (5H)-yl)methoxy)-8a,9,11a, 12-tetrahydro-8H, 11H-furo[3′,4′: 6,7][1,5]oxazocino[4,3,2-de]quinazolin-5-yl)-7-fluorobenzo[b]thiophene-3-carbonitrile], the half-maximal inhibitory concentration (IC50) in assay [1], in assay [2], in assay [3] and in assay [4] was not above 2000 nM each time.

In the case of `CC[S+]([O-])[C@H]1CN2CCC[C@@]2(COc2nc3c4c(c(Cl)c(-c5ccc(F)c6sc(N)c(C#N)c56)c(F)c4n2)OCCN3[C@H](C)c2cccnc2N)C1` (mixture of isomers) [Compound 906, 2-amino-4-(4-((R)-1-(2-aminopyridin-3-yl)ethyl)-8-chloro-2-(((2R,7aS)-2-(ethylsulfinyl)tetrahydro-1H-pyrrolizin-7a(5H)-yl)methoxy)-10-fluoro-5,6-dihydro-4H-[1,4]oxazepino[5,6,7-de]quinazolin-9-yl)-7-fluorobenzo[b]thiophene-3-carbonitrile], the IC50 in assay [1], in assay [2], in assay [3] and in assay [4] was not above 2000 nM throughout.

As to `C[C@H](c1cccnc1N)N1CCOc2c(Cl)c(-c3ccc(F)c4sc(N)c(C#N)c34)c(F)c3nc(OC[C@@]45CCCN4CC(=NOCC(F)(F)F)C5)nc1c23` (mixture of isomers) [Compound 917, 2-amino-4-(4-((R)-1-(2-aminopyridin-3-yl)ethyl)-8-chloro-10-fluoro-2-(((S)-2-((2,2,2-trifluoroethoxy)imino)tetrahydro-1H-pyrrolizin-7a(5H)-yl)methoxy)-5,6-dihydro-4H-[1,4]oxazepino[5,6,7-de]quinazolin-9-yl)-7-fluorobenzo[b]thiophene-3-carbonitrile], the half-inhibitory concentration (IC50) in assay [1], in assay [2], in assay [3] and in assay [4] was not above 2000 nM each time.

Regarding `N#Cc1c(N)sc2c(F)ccc(-c3c(C(F)(F)F)c4c5c(nc(OC[C@@]67CCCN6[C@H](COc6nccnc6C(F)F)CC7)nc5c3F)N([C@@H](c3cccnc3N)C(F)F)CCO4)c12` (single isomer, unassigned) [Compound 605], the IC50 in assay [1], in assay [2], in assay [3] and in assay [4] was not above 2000 nM throughout.

On to `N#Cc1c(N)sc2c(F)ccc(-c3c(C(F)(F)F)c4c5c(nc(OC[C@@]67CCCN6C[C@H](F)C7)nc5c3F)N([C@H](CCC3CC3)c3cccnc3N)CCO4)c12` (single isomer, unassigned) [Compound 606], for which the IC50 in assay [1], in assay [2], in assay [3] and in assay [4] was more than 2000 nM in each case.

For the compound `C[C@@H]1COCCN1CC1(COc2nc3c4c(c(C(F)(F)F)c(-c5ccc(F)c6sc(N)c(C#N)c56)c(F)c4n2)OCCN3[C@H](C)c2cccnc2N)CC1` (single isomer, unassigned) [Compound 608], the IC50 in assay [1], in assay [2], in assay [3] and in assay [4] was not above 2000 nM throughout.
